Common to all, as to type: functional, cell-based
One experiment relates to SK-OV-3. In words: Anti-proliferative activity against human SK-OV-3 cells assessed as cell growth inhibition incubated for 72 hrs by CCK-8 assay. The conditions noted are these: SK-OV-3, 72 h.
Another experiment has as its system HCC1954. As to the kind of experiment: Anti-proliferative activity against human HCC1954 cells assessed as cell growth inhibition incubated for 72 hrs by CCK-8 assay. The settings on record: HCC1954, 72 h. (In general: Tetrazolium assays rely on reduction of a dye to a coloured formazan, in cell work by metabolically active cells.)
For the next experiment, the system named is PC-3. As to the kind of experiment: Antiproliferative activity against human PC-3 cells assessed as cell growth inhibition by SRB assay.
Another experiment deals with DU-145. As to the kind of experiment: Antiproliferative activity against human […] cells assessed as cell growth inhibition by SRB assay. (In general: The SRB assay estimates cell density from bound dye.)
The next experiment deals with HeLa. In words: Anti-proliferative activity against human HeLa cells assessed as cell growth inhibition incubated for 72 hrs by CCK-8 assay.

The IC50 is the concentration needed to halve the response being measured.

For the compound `COc1ccc(-c2oc3cc(O)cc(O)c3c(=O)c2OCc2cn([C@@H]3O[C@H](COC(C)=O)[C@@H](OC(C)=O)[C@H](OC(C)=O)[C@H]3OC(C)=O)nn2)cc1O`, the figures for the IC50 with SK-OV-3 and in the experiment on HCC1954 were 30600 nM and 43400 nM, respectively.

Take `CC1([N+](=O)[O-])C(=O)c2cc(F)ccc2OC1CC(=O)NC12CC3CC(CC(C3)C1)C2` (racemic): the IC50 in the experiment on PC-3 is 940 nM; with DU-145 it was 1210 nM.

As to `C[C@]1([N+](=O)[O-])C(=O)c2cc(F)ccc2O[C@@H]1CC(=O)NC12CC3CC(CC(C3)C1)C2`, the figures for the concentration for half-maximal inhibition (IC50) in the experiment on PC-3 and in the experiment with DU-145 were 1540 nM and 1650 nM, respectively.

Consider `C[C@@]1([N+](=O)[O-])C(=O)c2cc(F)ccc2O[C@H]1CC(=O)NC12CC3CC(CC(C3)C1)C2`, for which the IC50 in the experiment with PC-3 was 820 nM; with DU-145 it was 640 nM.

In the case of `COc1ccc(-c2cc(=O)c3c(C)cc(OCc4cn([C@@H]5O[C@H](COC(C)=O)[C@@H](O[C@H]6O[C@H](COC(C)=O)[C@@H](OC(C)=O)[C@H](OC(C)=O)[C@H]6OC(C)=O)[C@H](OC(C)=O)[C@H]5OC(C)=O)nn4)cc3o2)cc1`, the concentration for half-maximal inhibition (IC50) in the experiment with HeLa is 14700 nM.

(Values after ChEMBL document CHEMBL5346866, “What about the progress in the synthesis of flavonoid from 2020?” (Eur J Med Chem, 2022).)
